Where a name gives a salt, the structure may show the parent alone. Read-outs that look alike come from different tables or passages of the source.
Biological target: T1, menin and MLL (menin, Flag tagged; biotinylated MLL1 peptide 1-46aa) (Homo sapiens, UniProt O00255)
T1 sequence (O00255 1-610): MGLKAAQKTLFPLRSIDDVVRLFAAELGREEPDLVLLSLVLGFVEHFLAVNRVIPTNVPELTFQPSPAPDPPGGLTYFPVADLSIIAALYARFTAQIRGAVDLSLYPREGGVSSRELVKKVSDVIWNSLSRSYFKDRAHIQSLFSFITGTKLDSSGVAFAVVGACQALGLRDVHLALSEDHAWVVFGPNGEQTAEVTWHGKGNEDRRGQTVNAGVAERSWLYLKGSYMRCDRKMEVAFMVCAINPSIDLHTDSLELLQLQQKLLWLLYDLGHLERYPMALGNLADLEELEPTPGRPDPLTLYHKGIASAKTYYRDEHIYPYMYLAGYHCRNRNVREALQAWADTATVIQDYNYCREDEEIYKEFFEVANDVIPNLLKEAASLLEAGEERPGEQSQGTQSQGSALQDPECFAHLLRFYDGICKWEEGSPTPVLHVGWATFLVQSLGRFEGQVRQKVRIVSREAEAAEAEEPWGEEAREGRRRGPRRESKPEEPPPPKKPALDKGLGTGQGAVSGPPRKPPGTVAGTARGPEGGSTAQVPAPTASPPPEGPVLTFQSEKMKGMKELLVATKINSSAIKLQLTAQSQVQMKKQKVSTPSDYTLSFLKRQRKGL
Assay: biochemical

[1] = cell free IC50 (nM), 1 nM menin, 10 nM biotinylated MLL1 peptide, AlphaLISA

Description: Then, the fluorescence signal by AlphaLISA (registered trademark, PerkinElmer Co., Ltd.) was measured using a plate reader (PerkinElmer Co., Ltd., EnVisionXcite).

Row | SMILES | IC50 [1] [nM] | other results
1 | CN(c1ncnc2sc(CC(F)(F)F)cc12)[C@@H]1CC[C@H](NCc2cncs2)C1 [Example 36, (1R,3S)-N^1-methyl-N^3-[(1,3-thiazol-5-yl)methyl]-N^1-[6-(2,2,2-trifluoroethyl)thieno[2,3-d]pyrimidin-4-yl]cyclopentane-1,3-diamine hydrochloride] | 636 | 
2 | FC(F)(F)Cc1cc2c(N[C@@H]3CCC[C@H](NCc4ccc(-c5nnc[nH]5)cc4)C3)ncnc2s1 [Example 37, (1S,3R)-N^1-{[4-(4H-1,2,4-triazol-3-yl)phenyl]methyl}-N^3-[6-(2,2,2-trifluoroethyl)thieno[2,3-d]pyrimidin-4-yl]cyclohexane-1,3-diamine hydrochloride] | 701 | 
3 | O=C1CCCN1Cc1ccc(CN[C@H]2CCC[C@@H](Nc3ncnc4sc(CC(F)(F)F)cc34)C2)cc1 [Example 38, 1-{[4-({[(1S,3R)-3-{[6-(2,2,2-trifluoroethyl)thieno[2,3-d]pyrimidin-4-yl[amino}cyclohexy]amino}methyl)phenyl]methyl}pyrrolidin-2-one hydrochloride] | 1850 | 
4 | FC(F)(F)Cc1cc2c(N[C@@H]3CCC[C@H](NCc4ccc(-c5ccncc5)cc4)C3)ncnc2s1 [Example 40, (1S,3R)-N^1-{[4-(pyridin-4-yl)phenyl]methyl}-N^3-[6-(2,2,2-trifluoroethyl)thieno[2,3-d]pyrimidin-4-yl]cyclohexane-1,3-diamine hydrochloride] | 265 | 
5 | FC(F)(F)Cc1cc2c(N[C@@H]3CCC[C@H](NCc4ccc(Oc5ccccc5)cc4)C3)ncnc2s1 [Example 41, (1S,3R)-N^1-[(4-phenoxyphenyl)methyl]-N^3-[6-(2,2,2-trifluoroethyl)thieno[2,3-d]pyrimidin-4-yl]cyclohexane-1,3-diamine hydrochloride] | 472 | 
6 | OCCN(c1ncnc2sc(CC(F)(F)F)cc12)[C@@H]1CC[C@H](NCc2ccc(-c3cccnc3)cc2)C1 [Example 42, 2-{[(1R,3S)-3-({[4-(pyridin-3-yl)phenyl]methyl}amino)cyclopentyl][6-(2,2,2-trifluoroethyl)thieno[2,3-d]pyrimidin-4-yl[amino}ethan-1-ol hydrochloride] | 105 | 
7 | CCN(c1ncnc2sc(CC(F)(F)F)cc12)[C@@H]1CC[C@H](NCc2ccc(-c3cccnc3)cc2)C1 [Example 43, (1R,3S)-N^1-ethyl-N^3-{[4-(pyridin-3-yl)phenyl]methyl}-N^1-[6-(2,2,2 trifluoroethyl)thieno[2,3-d]pyrimidin-4-yl]cyclopentane-1,3-diamine hydrochloride] | 76.2 | 
8 | COc1cncc(-c2ccc(CN[C@H]3CC[C@@H](N(C)c4ncnc5sc(C6CC6)cc45)C3)cc2)c1 [Example 45, (1R,3S)-N^1-(6-cyclopropylthieno[2,3-d]pyrimidin-4-yl)-N^3-{[4-(5-methoxypyridin-3-yl)phenyl]methyl}-N^1-methylcyclopentane-1,3-diamine hydrochloride] | 33.3 | 
9 | COc1cncc(-c2ccc(CN[C@H]3CC[C@@H](N(C)c4nc(C)nc5sc(CC(F)(F)F)cc45)C3)cn2)c1 [Example 46, (1R,3S)-N^3-[(5′-methoxy[2,3′-bipyridine]-5-yl)methyl]-N^1-methyl-N^1-[2-methyl-6-(2,2,2-trifluoroethyl)thieno[2,3-d]pyrimidin-4-yl]cyclopentane-1,3-diamine hydrochloride] | 39.4 | 
10 | COCc1cc2c(N(C)[C@@H]3CC[C@H](NCc4ccc(-c5cncc(OC)c5)cc4)C3)ncnc2s1 [Example 47, (1R,3S)-N^1-[6-(methoxymethyl)thieno[2,3-d]pyrimidin-4-yl]-N^3-{[4-(5-methoxypyridin-3-yl)phenyl]methyl}-N^1-methylcyclopentane-1,3-diamine hydrochloride] | 97.2 | 
11 | COc1cncc(-c2ccc(CN[C@H]3CC[C@@H](N(C)c4ncnc5sc(C6COC6)cc45)C3)cc2)c1 [Example 48, (1R,3S)-N^3-{[4-(5-methoxypyridin-3-yl)phenyl]methyl}-N^1-methyl-N^1-[6-(oxetan-3-yl)thieno[2,3-d]pyrixnidin-4-yl]cyclopentane-1,3-diamine hydrochloride] | 1420 | 
12 | CN(c1ncnc2sc(CC(F)(F)F)cc12)[C@@H]1CC[C@H](NCc2ccc(C(=O)NCc3cnn(C)c3)cc2)C1 [Example 49, N-[(1-methyl-1H-pyrazol-4-yl)methyl]-4-({[(1S,3R)-3-{methyl[6-(2,2,2-trifluoroethyl)thieno[2,3-d]pyrimidin-4-yl]amino}cyclopentyl]amino}methyl)benzamide hydrochloride] | 24 | 
13 | COc1cncc(-c2ccc(CN[C@@H]3C[C@H](N(C)c4ncnc5sc(CC(F)(F)F)cc45)C[C@H]3O)cc2)c1 [Example 50, (1R,2R,4S)-2-({[4-(5-methoxypyridin-3-yl)phenyl]methyl}amino)-4-{methyl[6-(2,2,2-trifluoroethyl)thieno[2,3-d]pyrimidin-4-yl]amino}cyclopentan-1-ol hydrochloride] |  | IC50: 9.7 nM
14 | COc1cncc(-c2ccc(CN[C@@H]3C[C@H](N(C)c4ncnc5sc(CC(F)(F)F)cc45)C[C@@H]3O)cc2)c1 [Example 51, (1S,2R,4S)-2-({[4(5methoxypyridin-3-yl)phenyl]methyl}amino)-4-{methyl[6-(2,2,2-trilluoroethyl)thieno[2,3-d]pyrimidin-4-yl]amino}cyclopentan-1-ol hydrochloride] | 10.1 | 
15 | COc1cncc(-c2ccc(CN[C@@H]3C[C@H](Nc4ncnc5sc(CC(F)(F)F)cc45)CC(F)(F)C3)cc2)c1 [Example 52, (1R,3S)-5,5-difluoro-N^1-{[4-(5-methoxypyridin-3-yl)phenyl]methyl}-N^3-[6-(2,2,2-trifluoroethyl)thieno[2,3-d]pyrimidin-4-yl]cyclohexane-l,3-diamine hydrochloride] | 612 | 
16 | CN(c1ncnc2sc(CC(F)(F)F)cc12)[C@@H]1CC[C@H](NCc2ccc(S(=O)(=O)c3ccccc3)cc2)C1 [Example 53, (1R,3S)N^3-{[4-(benzenesulfonyl)phenyl]methyl}N^1-methyl-N^1-[6-(2,2,2-trifluoroethyl)thieno[2,3-d]pyrimidin-4-yl]cyclopentane-1,3-diamine hydrochloride] | 17.7 | 
17 | CNc1nc(N(C)[C@H]2C[C@@H](NCc3ccc(Nc4cccnc4)cc3)C[C@@H]2O)c2cc(CC(F)(F)F)sc2n1 [Example 54, (1S,2S,4R)-2-{methyl[2-(methylamino)-6-(2,2,2-trifluoroethyl)thieno[2,3-d]pyrimidin-4-yl]amino}-4-[({4-[(pyridin-3-yl)amino]phenyl}methyl)amino]cyclopentan-1-ol hydrochloride] | 1 | 
18 | C=CC(=O)Nc1cccc(Nc2ccc(CN[C@H]3CC[C@@H](N(C)c4nc(NC)nc5sc(CC(F)(F)F)cc45)C3)cc2)c1 [Example 55, N-{3-[4-({[(1S,3R)-3{methyl[2-(methylamino)-6-(2,2,2-trifluoroethyl)thieno[2,3-d]pyrimidin-4-yl]amino}cyclopentyl]amino}methyl)anilino]phenyl}prop-2-enamide hydrochloride] | 9.8 | 
19 | CN(c1ncnc2sc(CC(F)(F)F)cc12)[C@@H]1CC[C@H](NCc2ccc(N3CCc4ccccc43)cc2)C1 [Example 56, (1R,3S)-N^3-{[4-(2)-3-dihydro-1H-indol-1-yl)phenyl]methyl}-N^1-methyl-N^1-[6-(2,2,2-trifluoroethyl)thieno[2,3-d]pyrimidin-4-yl]cyclopentane-1,3-diamine hydrochloride] | 43.6 | 
20 | Cc1ncc(-c2ccc(CN[C@H]3CC[C@@H](N(C)c4ncnc5sc(CC(F)(F)F)cc45)C3)cc2)cc1OC(F)F [Example 58, (1R,3S)-N^3-({4-[5-(difluoromethoxy)-6-methylpyridin-3-yl]phenyl}methyl)-N^1-methyl-N^1-[6-(2,2,2-trifluoroethyl)thieno[2,3-d]pyrimidin-4-yl]cyclopentane-1,3-diamine hydrochloride] | 15.2 | 
21 | CN(c1ncnc2sc(CC(F)(F)F)cc12)[C@@H]1CC[C@H](NCc2ccc(S(=O)(=O)N3CCCCCC3)cc2)C1 [Example 59, (1R,3S)-N^3-{[4-(azepane-1-sulfonyl)phenyl]methyl)-N^1methyl-N^1-[6-(2,2,2-trifluoroethyl)thieno[2,3-d]pyrimidin-4-yl]cyclopentane-1,3-diamine hydrochloride] | 33 | 
22 | CNc1nc(N(C)[C@H]2C[C@@H](NCc3ccc(-n4ccnc4)cc3)C[C@H]2O)c2cc(CC(F)(F)F)sc2n1 [Example 61, (1R,2S,4R)-4-({[4-(1H-imidazol-1-yl)phenyl]methyl}amino)-2-{methyl[2-(methylamino)-6-(2,2,2-trifluoroethyl)thieno[2,3-d]pyrimidin-4-yl]amino}cyclopentan-1-ol hydrochloride] | 1.9 | 
23 | CNc1nc(N(C)[C@H]2C[C@@H](NCc3ccc(-c4cnn(S(C)(=O)=O)c4)cc3)C[C@H]2O)c2cc(CC(F)(F)F)sc2n1 [Example 62, (1R,2S,4R)-4[({4[1-(methanesulfonyl)-1H-pyrazol-4-yl]phenyl}methyl)amino]-2-{methyl[2-(methylamino)-6-(2,2,2-trifluoroethyl)thieno[2,3-d]pyrimidin-4-yl]amino}cyclopentan-1-ol hydrochloride] |  | IC50 (IC50, binding inhibitory activity between menin and MLL, AlphaLISA, 1 nM menin, 10 nM biotinylated MLL1 peptide): 2 nM

Reference: US11236106B2, “Cycloalkane-1,3-diamine derivative” (Daiichi Sankyo Company, Limited, priority 2018, dated 2022)
